This passage reports EC50 results from US8999967B2, “Tricyclic fused ring inhibitors of hepatitis C” (Presidio Pharmaceuticals, Inc., priority 2010, dated 2015).

pEC50: −log10 of the molar value.

The test system of the assay is HCV 1b_Huh-Luc/Neo-ET cell line (genotype 1b replicon in Huh 7 cells). The experiment in a line: HCV replicon assay (luciferase readout). The assay is classed as cell-based. The settings on record: Hepatitis C virus, HCV 1b replicon in Huh 7 cells, 72 h incubation, EC50 range class, read-out: Inhibition of HCV genotype 1b. As for the experimental part: Biological activity of the compounds of the invention was determined using an HCV replicon assay. The HCV 1b_Huh-Luc/Neo-ET cell line persistently expressing a bicistronic genotype 1b replicon in Huh 7 cells was obtained from ReBLikon GMBH. This cell line was used to test compound inhibition using luciferase enzyme activity readout as a measurement of compound inhibition of replicon levels.
On Day 1 (the day after plating cells), each compound is added in triplicate to the cells. Plates are incubated for 72 h prior to determining luciferase levels. Enzyme activity was measured using a Bright-Glo Kit (cat. number E2620) manufactured by Promega Corporation. The following equation was used to generate a percent control value for each compound. % Control=(Compound Luciferase Level/Control Luciferase Level)*100
The EC50 value was determined using GraphPad Prism and the following equation: Y=Bottom asymptote+(Top asymptote-Bottom asymptote)/(1+10^((Log EC50−X)*HillSlope))
EC50 values of compounds are determined several times in the replicon assay to generate average EC50 values. […]
Background: Replicon systems follow genome replication, usually without infectious particles.

On to `COC(=O)N[C@H](C(=O)N1CCC[C@H]1c1ncc(-c2ccc3c(c2)Cc2ccc(-c4cnc([C@@H]5CCCN5C(=O)[C@@H](NC(=O)OC)[C@@H](C)OC)[nH]4)cc2O3)[nH]1)[C@@H](C)OC` [Compound 30], for which the pEC50 is > 9.00.

`CC[C@H](C)[C@H](NC(=O)OC)C(=O)N1CCC[C@H]1c1ncc(-c2ccc3c(c2)Cc2ccc(-c4cnc([C@@H]5CCCN5C(=O)[C@@H](NC(=O)OC)[C@@H](C)CC)[nH]4)cc2O3)[nH]1` [Compound 31]: the pEC50 is > 9.00.

As for `COC(=O)N[C@H](C(=O)N1CCC[C@H]1c1ncc(-c2ccc3c(c2)Cc2ccc(-c4cnc([C@@H]5CCCN5C(=O)[C@@H](NC(=O)OC)C5CCCC5)[nH]4)cc2O3)[nH]1)C1CCCC1` [Compound 32], the pEC50 was > 9.00.

For the molecule `COC(=O)N[C@H](C(=O)N1CCC[C@H]1c1ncc(-c2ccc3c(c2)Oc2ccc(-c4cnc([C@@H]5CCCN5C(=O)[C@@H](NC(=O)OC)C5CCCC5)[nH]4)cc2O3)[nH]1)C1CCCC1` [Compound 33], the pEC50 is > 9.00.

With `COC(=O)N[C@H](C(=O)N1CCC[C@H]1c1ncc(-c2ccc3c(c2)Oc2ccc(-c4cnc([C@@H]5CCCN5C(=O)[C@@H](NC(=O)OC)[C@@H](C)OC)[nH]4)cc2O3)[nH]1)[C@@H](C)OC` [Compound 34], the pEC50 was > 9.00.

On to `COC(=O)N[C@H](C(=O)N1CCC[C@H]1c1ncc(-c2ccc3c(c2)Oc2ccc(-c4cnc([C@@H]5CCCN5C(=O)[C@@H](NC(=O)OC)C5CCOCC5)[nH]4)cc2O3)[nH]1)C1CCOCC1` [Compound 35], for which the pEC50 is > 9.00.

With `COC(=O)N[C@H](C(=O)N1CSC[C@H]1c1ncc(-c2ccc3c(c2)Oc2ccc(-c4cnc([C@@H]5CSCN5C(=O)[C@@H](NC(=O)OC)C(C)C)[nH]4)cc2O3)[nH]1)C(C)C` [Compound 36], the pEC50 is > 9.00.

In the case of `COC(=O)N[C@@H](C(=O)N1CSC[C@H]1c1ncc(-c2ccc3c(c2)Oc2ccc(-c4cnc([C@@H]5CSCN5C(=O)[C@H](NC(=O)OC)c5ccccc5)[nH]4)cc2O3)[nH]1)c1ccccc1` [Compound 37], the pEC50 was > 9.00.

Take `COC(=O)N[C@@H](C(=O)N[C@@H](C)c1ncc(-c2ccc3c(c2)Oc2ccc(-c4cnc([C@H](C)NC(=O)[C@H](NC(=O)OC)c5ccccc5)[nH]4)cc2O3)[nH]1)c1ccccc1` [Compound 38]: the pEC50 is > 9.00.

In the case of `COC(=O)N[C@H](C(=O)N[C@@H](C)c1ncc(-c2ccc3c(c2)Oc2ccc(-c4cnc([C@H](C)NC(=O)[C@@H](NC(=O)OC)C(C)C)[nH]4)cc2O3)[nH]1)C(C)C` [Compound 39], the pEC50 is > 9.00.

For `COC(=O)N[C@H](C(=O)N1CCC[C@H]1c1ncc(-c2ccc3c(c2)Cc2cc(F)c(-c4cnc([C@@H]5CCCN5C(=O)[C@@H](NC(=O)OC)[C@@H](C)OC)[nH]4)cc2O3)[nH]1)[C@@H](C)OC` [Compound 40], the pEC50 was > 9.00.

With `CC[C@H](C)[C@H](NC(=O)OC)C(=O)N1CCC[C@H]1c1ncc(-c2ccc3c(c2)Cc2cc(F)c(-c4cnc([C@@H]5CCCN5C(=O)[C@@H](NC(=O)OC)[C@@H](C)OC)[nH]4)cc2O3)[nH]1` [Compound 41], the pEC50 is > 9.00.

On to `COC(=O)N[C@H](C(=O)N1CCC[C@H]1c1ncc(-c2ccc3c(c2)Cc2cc(F)c(-c4cnc([C@@H]5CCCN5C(=O)[C@@H](NC(=O)OC)[C@@H](C)OC)[nH]4)cc2O3)[nH]1)C1CCOCC1` [Compound 42], for which the pEC50 was > 9.00.

For the molecule `COC[C@H](NC(=O)OC)C(=O)N1CCC[C@H]1c1ncc(-c2ccc3c(c2)Cc2cc(F)c(-c4cnc([C@@H]5CCCN5C(=O)[C@@H](NC(=O)OC)[C@@H](C)OC)[nH]4)cc2O3)[nH]1` [Compound 43], the pEC50 is > 9.00.

Take `COC(=O)N[C@H](C(=O)N1CCC[C@H]1c1ncc(-c2cc3c(cc2F)Cc2cc(-c4cnc([C@@H]5CCCN5C(=O)[C@@H](NC(=O)OC)C5CCOCC5)[nH]4)ccc2O3)[nH]1)C(C)C` [Compound 44]: the pEC50 was > 9.00.

Turning to `COC[C@H](NC(=O)OC)C(=O)N1CCC[C@H]1c1ncc(-c2ccc3c(c2)Cc2cc(F)c(-c4cnc([C@@H]5CCCN5C(=O)[C@@H](NC(=O)OC)C(C)C)[nH]4)cc2O3)[nH]1` [Compound 45], the pEC50 was > 9.00.

With `CC[C@H](C)[C@H](NC(=O)OC)C(=O)N1CCC[C@H]1c1ncc(-c2ccc3c(c2)Oc2ccc(-c4cnc([C@@H]5CCCN5C(=O)[C@@H](NC(=O)OC)[C@@H](C)CC)[nH]4)cc2O3)[nH]1` [Compound 46], the pEC50 is > 9.00.

Take `COC(=O)N[C@H](C(=O)N1CCCC[C@H]1c1ncc(-c2ccc3c(c2)Oc2ccc(-c4cnc([C@@H]5CCCCN5C(=O)[C@@H](NC(=O)OC)C(C)C)[nH]4)cc2O3)[nH]1)C(C)C` [Compound 47]: the pEC50 is > 9.00.

Take `COC(=O)N[C@@H](C(=O)N1CCCC[C@H]1c1ncc(-c2ccc3c(c2)Oc2ccc(-c4cnc([C@@H]5CCCCN5C(=O)[C@H](NC(=O)OC)c5ccccc5)[nH]4)cc2O3)[nH]1)c1ccccc1` [Compound 48]: the pEC50 is > 9.00.

With `COC(=O)N[C@H](C(=O)N1CCC[C@H]1c1ncc(-c2ccc3oc4cc(-c5cnc([C@@H]6CCCN6C(=O)[C@@H](NC(=O)OC)C(C)C)[nH]5)c(Cl)cc4c(=O)c3c2)[nH]1)C(C)C` [Compound 49], the pEC50 was > 9.00.

For `COC(=O)N[C@H](C(=O)N1CCC[C@H]1c1ncc(-c2ccc3oc4cc(-c5cnc([C@@H]6CCCN6C(=O)[C@@H](NC(=O)OC)[C@@H](C)OC)[nH]5)c(Cl)cc4c(=O)c3c2)[nH]1)[C@@H](C)OC` [Compound 50], the pEC50 was > 9.00.

`CC[C@H](C)[C@H](NC(=O)OC)C(=O)N1CCC[C@H]1c1ncc(-c2ccc3oc4cc(-c5cnc([C@@H]6CCCN6C(=O)[C@@H](NC(=O)OC)[C@@H](C)CC)[nH]5)c(Cl)cc4c(=O)c3c2)[nH]1` [Compound 51]: the pEC50 was > 9.00.

As for `COC(=O)N[C@H](C(=O)N1CCC[C@H]1c1ncc(-c2ccc3oc4cc(-c5cnc([C@@H]6CCCN6C(=O)[C@@H](NC(=O)OC)C6CCOCC6)[nH]5)c(Cl)cc4c(=O)c3c2)[nH]1)C1CCOCC1` [Compound 52], the pEC50 was > 9.00.

For the molecule `CC[C@H](C)[C@H](NC(=O)OC)C(=O)N1CCC[C@H]1c1ncc(-c2ccc3c(c2)Cc2cc(F)c(-c4cnc([C@@H]5CCCN5C(=O)[C@@H](NC(=O)OC)[C@@H](C)CC)[nH]4)cc2O3)[nH]1` [Compound 53], the pEC50 was > 9.00.

In the case of `C=CC[C@H](NC(=O)OC)C(=O)N1CCC[C@H]1c1ncc(-c2ccc3c(c2)Oc2ccc(-c4cnc([C@@H]5CCCN5C(=O)[C@H](CC=C)NC(=O)OC)[nH]4)cc2O3)[nH]1` [Compound 55], the pEC50 was > 9.00.

Turning to `C#CC[C@H](NC(=O)OC)C(=O)N1CCC[C@H]1c1ncc(-c2ccc3c(c2)Oc2ccc(-c4cnc([C@@H]5CCCN5C(=O)[C@H](CC#C)NC(=O)OC)[nH]4)cc2O3)[nH]1` [Compound 56], the pEC50 is > 9.00.

For the molecule `[2H]C([2H])([2H])C([2H])(C([2H])([2H])[2H])[C@]([2H])(NC(=O)OC)C(=O)N1CCC[C@H]1c1ncc(-c2ccc3c(c2)Oc2ccc(-c4cnc([C@@H]5CCCN5C(=O)[C@@]([2H])(NC(=O)OC)C([2H])(C([2H])([2H])[2H])C([2H])([2H])[2H])[nH]4)cc2O3)[nH]1` [Compound 57], the pEC50 is > 9.00.

With `COC(=O)N[C@@H](C(=O)N1CCC[C@H]1c1ncc(-c2ccc3oc4cc(-c5cnc([C@@H]6CCCN6C(=O)[C@H](NC(=O)OC)c6ccccc6)[nH]5)c(Cl)cc4c(=O)c3c2)[nH]1)c1ccccc1` [Compound 58], the pEC50 was > 9.00.

For `CC[C@H](C)[C@H](NC(=O)OC)C(=O)N1CCC[C@H]1c1ncc(-c2cc3c(cc2F)Cc2cc(-c4cnc([C@@H]5CCCN5C(=O)[C@@H](NC(=O)OC)C5CCOCC5)[nH]4)ccc2O3)[nH]1` [Compound 59], the pEC50 is > 9.00.

As for `CC[C@H](C)[C@H](NC(=O)OC)C(=O)N1CCC[C@H]1c1ncc(-c2cc3c(cc2F)Cc2cc(-c4cnc([C@@H]5CCCN5C(=O)[C@H](COC)NC(=O)OC)[nH]4)ccc2O3)[nH]1` [Compound 60], the pEC50 was > 9.00.

Turning to `COC(=O)N[C@H](C(=O)N1CCC[C@H]1c1ncc(-c2ccc3c(c2)Cc2cc(Cl)c(-c4cnc([C@@H]5CCCN5C(=O)[C@@H](NC(=O)OC)C(C)C)[nH]4)cc2O3)[nH]1)C(C)C` [Compound 61], the pEC50 is > 9.00.

In the case of `COC(=O)N[C@H](C(=O)N1CCC[C@H]1c1ncc(-c2ccc3c(c2)Cc2cc(Cl)c(-c4cnc([C@@H]5CCCN5C(=O)[C@@H](NC(=O)OC)[C@@H](C)OC)[nH]4)cc2O3)[nH]1)[C@@H](C)OC` [Compound 62], the pEC50 was > 9.00.

On to `CC[C@H](C)[C@H](NC(=O)OC)C(=O)N1CCC[C@H]1c1ncc(-c2ccc3c(c2)Cc2cc(Cl)c(-c4cnc([C@@H]5CCCN5C(=O)[C@@H](NC(=O)OC)[C@@H](C)CC)[nH]4)cc2O3)[nH]1` [Compound 63], for which the pEC50 is > 9.00.

As to `COC(=O)N[C@H](C(=O)N1CCOC[C@H]1c1ncc(-c2ccc3c(c2)Oc2ccc(-c4cnc([C@@H]5COCCN5C(=O)[C@@H](NC(=O)OC)C(C)C)[nH]4)cc2O3)[nH]1)C(C)C` [Compound 64], the pEC50 was > 9.00.

Regarding `COC(=O)N[C@@H](C(=O)N1CCOC[C@H]1c1ncc(-c2ccc3c(c2)Oc2ccc(-c4cnc([C@@H]5COCCN5C(=O)[C@H](NC(=O)OC)c5ccccc5)[nH]4)cc2O3)[nH]1)c1ccccc1` [Compound 65], the pEC50 was > 9.00.

On to `COC(=O)N[C@H](C(=O)N1CSC[C@H]1c1ncc(-c2ccc3c(c2)Oc2ccc(-c4cnc([C@@H]5CSCN5C(=O)[C@@H](NC(=O)OC)C5CCCC5)[nH]4)cc2O3)[nH]1)C1CCCC1` [Compound 66], for which the pEC50 was > 9.00.
